Test results taken from US20180292390A1 (priority 2015, published 2018).
Where two headings read alike, the source gives them in different places.

Tests used:
[1] = system: Muller cell processes; assay: GFAP immunostaining of ex vivo retinal culture: Muller cell processes; format: cell-based; details: retina untreated, histamine only, LXA4 only, or both, FIG. 15
Description: This experiment followed the protocol of Example 1. This example illustrates a new analysis added for drug evaluation in ex vivo retinal culture. […] Statistical significance is determined by two-tailed Student's t test. *, P<0.05; **, P<0.01; ***, P<0.001. Mean±SEM is plotted in the graph.

[2] = system: BRB in retinal slice cultures; assay: IgG immunostaining of retinal slice cultures: BRB breach; format: cell-based; details: for IgG in neurons (indicator of BRB breach): retinal slices treated with histamine with or without lipoxin A4, FIG. 10
From the text: Untreated samples served as control. The slices were then processed to generate cryosections for immunostaining. The location of IgG (an indicator of BRB breach) was monitored by immunostaining.

[3] = system: astrocytes in mouse brain organotypic cultures; details: 450 μM histamine; for GFAP-positive astrocytes (GFAP expression): 1 hr, 2 mm MBO
Description: (§1) Primary mouse brain organotypic cultures were prepared as described previously ((Levin et al., Brain Res. 1298, 194-207, 2009). Briefly, the brains were removed from C57BL/6 mice (n=8) and cut to either 1 mm or 2 mm thickness using a tissue chopper. The brain slices were then placed in medium containing 25% inactivated horse serum, 25% Hanks' BSS, 50% DMEM, and 25 mg/l penicillin-streptomycin (Invitrogen, Carlsbad, Calif.) in 6-well culture dishes and maintained for 30 min at room temperature. The brain slices were then moved to either fresh media (control) or fresh media containing 450 μM histamine (Sigma, Saint Louis, Mo., Cat. No. H7125-1G) in 6-well culture dishes for 1 hr at 37° C. in a 5% CO2-enriched atmosphere. The brain slices were fixed with 4% paraformaldehyde (PFA) in PBS at room temperature and processed for immunohistochemistry as described below.
(§2) The mouse brain organotypic brain slices were stored in 4% PFA overnight at 4° C. The brain slices were then infiltrated with 10% sucrose in PBS for 2 hours, followed by 30% sucrose in PBS overnight at 4° C. under constant, gentle agitation. Using a Leica cryostat, 12 μm thick frozen sections were cut, mounted onto Fisher Super Frost Plus slides, and air dried. Immunohistochemistry for the paraffin-embedded tissues was carried out using procedure well known in the art. Briefly, tissues were deparaffinized using xylene and then rehydrated through a graded series of decreasing concentrations of ethanol. Next, protein antigenicity was enhanced by microwaving sections in citrate buffer. The paraffin-embedded tissues were then processed in the same way as the frozen sections described below.
(§3) Immunohistochemistry for the frozen sections was carried out as previously described ((Levin et al., Brain Res. 1298, 194-207, 2009). Briefly, tissues were rehydrated with PBS for 2 min. The endogenous peroxidase was quenched by treating sections with 0.3% H202 for 30 min. First, sections were incubated in blocking serum for 30 min. at room temperature, and then treated with primary antibodies at appropriate dilutions for 1 hr at room temperature. Next, sections were thoroughly rinsed with PBS, and sections were incubated with biotin-labeled secondary antibody for 30 min. at room temperature. Sections were then treated with the avidin-peroxidase-labeled biotin complex (ABC, Vector Labs, Foster City, Calif.) and visualized by treating with either 3-3-diaminobenzidine-4-HCL (DAB)/H2O2 (Biomeda, Foster City, Calif.) or NovaRed (Vector Labs, Foster City, Calif., Cat. No. SK-4800). Sections were then lightly counterstained with hematoxylin, dehydrated through increasing concentrations of ethanol, cleared in xylene and mounted in Permount. Specimens were examined and photographed with a Nikon FXA microscope, and digital images were recorded using a Nikon DXM1200F digital camera and processed using Image Pro Plus (Phase 3 Imaging, Glen Mills, Pa.) image software.
(§4) Leaky and non-leaky vessels, GFAP-positive and -negative astrocytes, and vimentin-positive and -negative neurons were counted in sections of primary mouse brain organotypic culture slices. Images were optimized and counting was performed using the counting feature of Adobe Photoshop CS3. Three sections were examined per treatment group, with at least ten viewing fields counted from each section, for a total of 30 viewing fields per treatment group. Only blood vessels with endothelial cell nuclei, astrocytes with their nuclei, and neurons with their nuclei within the plane of section were included in the count. […] The percentage of total leaky vessels, GFAP-positive astrocytes, and vimentin-positive neurons for histamine treated and control slices were determined.
(§5) Immunohistochemistry (IHC) was used to evaluate the effects of histamine on BBB permeability and the response of cells within the surrounding brain parenchyma.

[4] = system: BBB (blood vessels) in mouse brain organotypic cultures; details: 450 μM histamine; for blood vessel leakage: 1 hour; for percentage of leaky vessels (IgG extravasated out of blood vessels): 2 mm MBO
Description: as §1, §2, §3, §4, §5

[5] = system: neurons in mouse brain organotypic cultures; details: 450 μM histamine; for vimentin-positive neurons: 2 mm MBO
Description: as §1, §2, §3, §4, §5

[6] = system: GFAP expression in retinal slices; details: retinal slices treated with histamine 0, 30, 60 or 90 min, FIG. 8
From the text: (§6) The slices were then processed to generate cryosections for immunostaining.

[7] = system: MAP2 expression in retinal slices; details: retinal slices treated with histamine 0, 30, 60 or 90 min, FIG. 9
From the text: as §6

[8] = system: BBB, mouse brain; assay: IgG immunostaining of brain cortex of PT-treated mice: BBB compromise; format: in vivo
From the text: This experiment followed the protocol of Example 1. This experiment involved S100B knockout (KO) mice, focusing on age-dependent increase of blood-brain barrier permeability and neuron-binding autoantibodies in SB100KO mice. […] Overlay of IgG immunostaining (red) with DAPI (blue) is presented from cortical region of the brain. (FIG. 18A) In untreated wild type (WT) brains, IgG-positive staining was confined to the microvasculature, indicating intact blood vessels (arrows). […] (FIG. 18C). In the S100BKO mouse brain (KO), even without PT treatment, IgG-positive leaks (marked by white dotted circle) were observed. (FIG. 18D).

[9] = system: retinal neurons; assay: SV2 and MAP2 immunostaining of retina of pertussis toxin treated mice; format: in vivo; details: pertussis toxin treated wild type mice

CCCCC[C@H](O)/C=C/C=C\C=C\C=C\[C@@H](O)[C@@H](O)CCCC(=O)O [LXA4, lipoxin A4]
Muller cell processes (GFAP staining, width) [1]: Rescued | IgG in neurons (indicator of BRB breach) [2]: conferred protection from these effects

NCCc1c[nH]cn1 [histamine]
astrocyte activation ([3]; 1 hour, 1 mm MBOs): 47.7% | GFAP expression by astrocytes ([3]; 1 hour, 2 mm MBOs): 45.7% | GFAP-positive astrocytes (GFAP expression) ([3]; distal portion): 48.4% | GFAP-positive astrocytes (GFAP expression) ([3]; middle portion): 45.1% | GFAP-positive astrocytes (GFAP expression) ([3]; proximal portion): 43.6% | blood vessel leakage ([4]; 1 mm MBOs): 30.9% | blood vessel leakage ([4]; 2 mm MBOs): 24.4% | percentage of leaky vessels (IgG extravasated out of blood vessels) ([4]; 1 hr, distal portion (700-1050 μm)): 32.4% | percentage of leaky vessels (IgG extravasated out of blood vessels) ([4]; 1 hr, middle portion (350-700 μm)): 24.7% | percentage of leaky vessels (IgG extravasated out of blood vessels) ([4]; 1 hr, proximal portion (0-350 μm)): 19.9% | perivascular leakage, histamine treated compared to controls, overall ([4]; 1 hr, MBO, FIG. 5A): more than two-fold | neuronal damage-responses ([5]; 1 hour, 1 mm MBOs): 51.8% | vimentin expression by neurons ([5]; 1 hour, 2 mm MBOs): 46.5% | vimentin-positive neurons ([5]; 1 hr, distal portion): 47.5% | vimentin-positive neurons ([5]; 1 hr, middle portion): 45.1% | vimentin-positive neurons ([5]; 1 hr, proximal portion): 47% | increase in neurons expressing vimentin compared to control sections ([5]; 1 hr, MBO, FIG. 5C): greater than four-fold | Muller cell processes (GFAP staining, width) [1]: Compromised | GFAP expression [6]: elevation in GFAP expression | MAP2 expression [7]: decrease in MAP2 expression | BRB integrity, location of IgG ([2]; retinal slices after histamine treatment, FIG. 7): BRB breakdown and extravasated IgG surrounding blood vessels | IgG in neurons (indicator of BRB breach) [2]: neurons were loaded with IgG

Pertussis toxin [PT]
IgG binding to neurons in brain cortex ([8]; S100BKO mice treated with PT, FIG. 18D): intensely bound by IgG | IgG-positive staining in brain cortex ([8]; wild type (WT) mice with PT treatment, FIG. 18B): IgG-positive microvascular leaks | retinal neuronal damage by SV2 and MAP2 immunostaining [9]: displays retinal neuronal damages
